Laboratory results as given in patent US20240041042A1, “1-(PYRIDYL)-5-AZINYLPYRAZOLE DERIVATIVES, AND THEIR USE FOR CONTROL OF UNDESIRED PLANT GROWTH” (Bayer Aktiengesellschaft, priority 2020, published 2024).
Where two headings read alike, the source gives them in different places.

Assays:
Format in all cases: in vivo
[1] = tested on: Triticum aestivum (TRZAS); conditions: crop plant compatibility, effect vs untreated controls
Method in brief: (§1)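 Effects were read visually as % versus untreated controls (0% = no effect, 100% = death) about 3 weeks post-treatment. Application was a post-emergence spray at the one-leaf stage of WP/EC formulations with 0.5% additive at 600 l/ha. Different dosages are denoted a, b and c.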

Oryza sativa (ORYSA) [2] = conditions: crop plant compatibility, effect in comparison to untreated controls
Method in brief: as §1

[3] = tested on: Pharbitis purpurea (PHBPU); assay: Post-emergence herbicidal action against PHBPU
Method in brief: (§2)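 Doses of 320 g/ha or lower, suffixes a, b and c marking different dosages, were applied post-emergence at the one-leaf stage in 600 l/ha water with 0.5% additive. Damage was assessed visually after about 3 weeks in the greenhouse.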

[4] = tested on: Alopecurus myosuroides (ALOMY); assay: Pre-emergence herbicidal action against ALOMY; conditions: 320 g/ha; scored visually after about 3 weeks; 100% = plants have died
Method in brief: (§3)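 Read-out is visual percent damage relative to untreated pots, with 100% meaning dead plants and 0% meaning no difference, assessed roughly three weeks after treatment. Compounds were applied pre-emergence to the covering soil at up to 320 g/ha.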

Setaria viridis (SETVI) [5] = assay: Post-emergence herbicidal action against SETVI; conditions: dosage 320 g/ha
Method in brief: as §2

[6] = tested on: Pharbitis purpurea (PHBPU); assay: Pre-emergence herbicidal action against PHBPU; conditions: dosage 320 g/ha
Method in brief: as §3

Lolium rigidum (LOLRI) [7] = assay: Post-emergence herbicidal action against LOLRI; conditions: dosage 320 g/ha
Method in brief: as §2

[8] = tested on: Verconica persica (VERPE); assay: Post-emergence herbicidal action against VERPE
Method in brief: as §2

[9] = tested on: Triticum aestivum (TRZAS); conditions: pre-emergence, crop plant compatibility, in comparison to untreated controls
Method in brief: (§4)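 Scoring: visual, % of untreated control, about 3 weeks after a pre-emergence application to the soil surface. Application used WP or EC formulations diluted in water with 0.5% additive at 600 l/ha; dosage levels are marked by suffixes a, b and c.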

[10] = tested on: Matricaria inodora (MATIN); assay: Post-emergence herbicidal action against MATIN; conditions: dosage 320 g/ha
Method in brief: as §2

[11] = tested on: Amaranthus retroflexus (AMARE); assay: Pre-emergence herbicidal action against AMARE; conditions: visual scoring after about 3 weeks vs untreated controls
Method in brief: as §3

[12] = tested on: Echinochloa crus-galli (ECHCG); assay: Post-emergence herbicidal action against ECHCG; conditions: dosage 320 g/ha
Method in brief: as §2

Setaria viridis (SETVI) [13] = assay: Pre-emergence herbicidal action against SETVI
Method in brief: as §3

Lolium rigidum (LOLRI) [14] = assay: Pre-emergence herbicidal action against LOLRI; conditions: dosage 320 g/ha
Method in brief: as §3

[15] = tested on: Echinochloa crus-galli (ECHCG); assay: Pre-emergence herbicidal action against ECHCG; conditions: dosage 320 g/ha
Method in brief: as §3

[16] = tested on: Matricaria inodora (MATIN); assay: Pre-emergence herbicidal action against MATIN; conditions: dosage 320 g/ha
Method in brief: as §3

[17] = tested on: Polygonum convolvulus (POLCO); assay: Pre-emergence herbicidal action against POLCO; conditions: dosage 320 g/ha
Method in brief: as §3

[18] = tested on: Amaranthus retroflexus (AMARE); assay: Post-emergence herbicidal action against AMARE
Method in brief: as §2

Zea mays (ZEAMX) [19] = conditions: crop plant compatibility, 80 g/ha, effect vs untreated controls
Method in brief: as §1

Avena fatua (AVEFA) [20] = assay: Post-emergence herbicidal action against AVEFA; conditions: 320 g/ha, visual rating about 3 weeks after treatment
Method in brief: as §2

Zea mays (ZEAMX) [21] = conditions: pre-emergence, 80 g/ha, crop plant compatibility, in comparison to untreated controls
Method in brief: as §4

Oryza sativa (ORYSA) [22] = conditions: pre-emergence, 80 g/ha, crop plant compatibility, in comparison to untreated controls
Method in brief: as §4

Viola tricolor (VIOTR) [23] = assay: Post-emergence herbicidal action against VIOTR
Method in brief: as §2

[24] = tested on: Alopecurus myosuroides (ALOMY); assay: Post-emergence herbicidal action against ALOMY; conditions: 320 g/ha, visual rating about 3 weeks after treatment vs untreated controls (100% = plants have died, 0% = like control plants)
Method in brief: as §2

[25] = tested on: Polygonum convolvulus (POLCO); assay: Post-emergence herbicidal action against POLCO
Method in brief: as §2

Avena fatua (AVEFA) [26] = assay: Pre-emergence herbicidal action against AVEFA; conditions: 320 g/ha, visual scoring after about 3 weeks vs untreated controls
Method in brief: as §3

[27] = tested on: Abutilon theophrasti (ABUTH); assay: Pre-emergence herbicidal action against ABUTH; conditions: Dosage column 320 g/ha (title prints 3200 g/ha); scored visually after about 3 weeks; 100% = plants have died
Method in brief: as §3

Viola tricolor (VIOTR) [28] = assay: Pre-emergence herbicidal action against VIOTR
Method in brief: as §3

[29] = tested on: Abutilon theophrasti (ABUTH); assay: Post-emergence herbicidal action against ABUTH; conditions: 320 g/ha, visual rating about 3 weeks after treatment vs untreated controls (100% = plants have died, 0% = like control plants)
Method in brief: as §2

[30] = 320 g/ha, visual rating about 3 weeks after treatment

Row | Structure (SMILES) | Post-emergence action against TRZAS in % ([1]; 80 g/ha) [%] | Post-emergence action against TRZAS in % ([1]; 320 g/ha) [%] | Post-emergence action against ORYSA in % (Oryza sativa (ORYSA) [2]; 80 g/ha) [%] | Post-emergence action against PHBPU in % ([3]; dosage 320 g/ha) [%] | Pre-emergence action against ALOMY [4] [%] | Post-emergence action against SETVI in % (Setaria viridis (SETVI) [5]) [%] | Pre-emergence action against PHBPU in % [6] [%] | Post-emergence action against LOLRI in % (Lolium rigidum (LOLRI) [7]) [%] | Post-emergence action against VERPE in % ([8]; 320 g/ha, VERPE) [%] | Pre-emergence action against TRZAS in % ([9]; 80 g/ha) [%] | Pre-emergence action against AMARE in % ([11]; 320 g/ha) [%] | Post-emergence action against ECHCG in % [12] [%] | Pre-emergence action against SETVI in % (Setaria viridis (SETVI) [13]; dosage 320 g/ha) [%] | Pre-emergence action against LOLRI in % (Lolium rigidum (LOLRI) [14]) [%] | Pre-emergence action against ECHCG in % [15] [%] | Pre-emergence action against MATIN in % [16] [%] | Pre-emergence action against POLCO in % [17] [%] | Post-emergence action against AMARE in % [18, 30] [%] | Post-emergence action against ZEAMX in % (Zea mays (ZEAMX) [19]) [%] | Post-emergence action against ORYSA in % (Oryza sativa (ORYSA) [2]; 320 g/ha) [%] | further results
1 | COC(=O)CCOC(=O)COc1nn(-c2cccc(C)n2)c(-c2ccc(F)nc2)c1Cl [Example I-276] | 0 | 20 | 10 | 90 | 80 | 90 | 80 | 80 | 90 | 0 | 90 | 80 | 90 | 100 | 90 | 80 | 80 | 90 |  |  | Post-emergence action against PHBPU in % ([3]; dosage 80 g/ha): 80%; Post-emergence action against VERPE in % ([8]; dosage 80 g/ha): 80%; Pre-emergence action against TRZAS in % ([9]; 320 g/ha): 0%; Post-emergence action against MATIN in % [10]: 80%
2 | COCCOC(=O)COc1nn(-c2cccc(C)n2)c(-c2ccc(F)nc2)c1Br [Example I-277] | 0 | 20 | 10 | 80 |  |  | 80 |  | 80 | 0 | 80 | 80 | 80 | 90 | 80 |  |  |  | 10 |  | 
3 | O=C(O)COc1nn(-c2ncccc2C(F)(F)F)c(-c2ccc(F)nc2)c1Br [Example I-310] |  |  | 10 |  | 100 | 90 |  | 90 | 80 |  | 100 | 90 |  | 100 |  |  | 90 | 80 | 0 | 20 | Post-emergence action against AVEFA in % (Avena fatua (AVEFA) [20]): 100%; Pre-emergence action against ZEAMX in % (Zea mays (ZEAMX) [21]): 0%; Pre-emergence action against ORYSA in % (Oryza sativa (ORYSA) [22]): 0%; Post-emergence action against VIOTR in % (Viola tricolor (VIOTR) [23]; 80 g/ha): 80%; Post-emergence action against VIOTR in % (Viola tricolor (VIOTR) [23]; 320 g/ha): 90%; Pre-emergence action against AMARE in % ([11]; 80 g/ha): 80%; Post-emergence action against ALOMY in % [24]: 90%; Post-emergence action against POLCO in % ([25]; dosage 80 g/ha): 80%; Post-emergence action against POLCO in % ([25]; dosage 320 g/ha): 80%; Pre-emergence action against AVEFA in % (Avena fatua (AVEFA) [26]): 90%; Pre-emergence action against ABUTH [27]: 80%; Pre-emergence action against VIOTR in % (Viola tricolor (VIOTR) [28]; 320 g/ha, Viola tricolor): 100%; Pre-emergence action against VIOTR in % (Viola tricolor (VIOTR) [28]; dosage 80 g/ha): 90%; Post-emergence action against AMARE in % ([18]; 80 g/ha, visual rating about 3 weeks after treatment vs untreated controls (100% = plants have died, 0% = like control plants)): 80%
4 | CCOC(=O)COc1nn(-c2ccccn2)c(-c2ccc(F)nc2)c1[N+](=O)[O-] [Example I-359] |  |  | 0 | 80 |  |  |  | 80 |  | 0 | 90 | 80 | 100 | 80 | 80 | 90 | 80 | 90 |  | 0 | Post-emergence action against AVEFA in % (Avena fatua (AVEFA) [20]): 90%; Pre-emergence action against ZEAMX in % (Zea mays (ZEAMX) [21]): 10%; Post-emergence action against ALOMY in % [24]: 90%; Post-emergence action against POLCO in % ([25]; dosage 320 g/ha): 80%; Pre-emergence action against SETVI in % (Setaria viridis (SETVI) [13]; dosage 80 g/ha): 90%; Pre-emergence action against VIOTR in % (Viola tricolor (VIOTR) [28]; 320 g/ha, Viola tricolor): 100%; Post-emergence action against ABUTH in % [29]: 80%
